These results are taken from patent US20080070986A1, “ALKYLETHER CITRATES FOR SELECTIVELY CLEANING THE SKIN” (priority 2006, published 2008).

Assay in all cases: Minimum inhibiting concentration (MIC), dilution series to DIN 58940 and DIN 58944
Common to all, as to assay type: cell-based

The test system of one assay is Malassezia furfur. The arrangement: unit not given here. Conditions: test solution 10% active substance. On the procedure:
(§1) The scale of an antimicrobial effect of surfactants can be established in a biological test system in which the minimum inhibiting concentration (MIC) is comparatively determined under laboratory conditions. In a dilution series of the test substance, the MIC is just that concentration at which no further growth is possible. The milder a surfactant, the higher the MIC value. The minimum inhibiting concentration of various surfactants was determined for three microorganisms occurring on the skin (Table 1). The surfactants are referred to by their names under the INCI nomenclature. [table] [table]

Assay [1] concerns Staphylococcus epidermidis. On the set-up: Minimum inhibiting concentration: unit not given here. As to conditions: for Minimum inhibiting concentration: test solution 10% active substance. On the procedure: as §1
In another assay the test system is Propionibacterium acnes. The arrangement: Minimum inhibiting concentration: unit not given here. Conditions: for Minimum inhibiting concentration: test solution 10% active substance. On the procedure: as §1
[2] abbreviates: in words, versus the other surfactants of Table 1.

With Cocamidopropyl betaine, the Minimum inhibiting concentration in the assay with Malassezia furfur (pH 6.5, single surfactants) is recorded as over 0.5; in assay [1] (pH 6.5, single surfactants) it was 0.1; with Propionibacterium acnes (pH 6.5, single surfactants) it was 0.05.
Consider Laureth-7 Citrate, for which the Minimum inhibiting concentration in the assay on Malassezia furfur (pH 6.5, single surfactants) is listed as over 0.5; in the assay with Malassezia furfur (surfactant combinations), “≧1”; in assay [1] (pH 6.5, single surfactants) it was over 0.5; in assay [1] (surfactant combinations), “≧1”; with Propionibacterium acnes (pH 6.5, single surfactants), over 0.5; in the assay with Propionibacterium acnes (surfactant combinations), “≧1”. The “Inhibition compared with the other surfactants” value (in assay [1] (setting [2]); in the assay with Propionibacterium acnes (setting [2])) was “only inhibited at considerably higher concentrations” in each case.
With Lauryl Glucoside, the Minimum inhibiting concentration is recorded as over 0.5 in the assay with Malassezia furfur (pH 6.5, single surfactants); 0.5 in assay [1] (pH 6.5, single surfactants); 0.05 with Propionibacterium acnes (pH 6.5, single surfactants).
Sodium Laureth Sulfate: the Minimum inhibiting concentration in the assay on Malassezia furfur (pH 6.5, single surfactants) is recorded as over 0.5; in the assay with Malassezia furfur (surfactant combinations), “≧1”; in assay [1] (pH 6.5, single surfactants), 0.5; in assay [1] (surfactant combinations), 0.5; in the assay with Propionibacterium acnes (pH 6.5, single surfactants), 0.05; in the assay on Propionibacterium acnes (surfactant combinations) it was 0.05.
